In article PMC11053631 (Pharmaceuticals, 2024):
≈ marks a conversion by molar mass, not a printed value. Where two headings read alike, the source gives them in different places.

What was measured:
[1] = Wettability test by film flotation; type: physicochemical
Method: To confirm the hypothesis given in the section discussing […] surface analysis, wettability tests using film flotation methods were conducted in SGF with/without surfactants. […] The wettability test was performed in pure SGF and SGF with 0.1% sodium dodecyl sulfonate (SDS) or tween 80 using film flotation methods.

[2] = Oral pharmacokinetic study in rats; type: in vivo; details: Sprague Dawley, rat, fasted male rats, oral 200 mg/kg in soybean oil, plasma treated with β-glucuronidase/sulfatase
Method: The in vivo pharmacokinetic investigations of the CUR-L-CN co-crystal and the marketed CUR crystal were carried out in fasted male rats. In vivo, CUR is easily conjugated, and it can be conjugated with glucuronic acid and sulfate to form monoglucuronides, monosulfates, and mixed glucuronide/sulfates.
After administration, approximately 0.4 mL of blood was collected from the orbit of the rats into heparinized tubes at 20 min, 40 min, 1 h, 1.5 h, 2.5 h, 4 h, 6 h, and 8 h. Plasma samples (100 μL) were precisely aspirated and vortexed with 50 μL of β-glucuronidase and sulfatase buffer at 37 °C for 60 min. Plasma samples were protein precipitated by adding 0.45 mL of methanol (0.2% acetic acid). After 10 min of shaking, the samples were centrifuged at 14,000 rpm for 3 min. Subsequently, the supernatants were analyzed via HPLC/MS. All experimental procedures were approved by the Animal Ethics Committee.
HPLC methods and conditions were the same as 4.13. A 10 µL sample was injected each time, and the flow rate of the mobile phase was set as 0.6 mL/min.
The AUC0–t was calculated from plasma concentrations observed from 0 to 8 h using a linear trapezoidal approach.

[3] = rats, intravenous and oral administration; cited from earlier work
[4] = Powder dissolution in SGF and SIF; type: physicochemical; details: for solubility at 180 min: thermodynamic from solid, 50 rpm, read-out: maximum solubility
Method: CUR-L-CN dissolves quickly and reaches its maximum concentration in 20 min. […] To understand this phenomenon, the residual powders after dissolution experiments were filtered and dried for PXRD analysis.
A mini bath dissolution device was used in the experiments, and a Julabo-5 heater was equipped for heating. The experiments were conducted at 37 °C with a rotational speed of 50 rpm. […] The dissolution rate experiments were measured in SGF and SIF containing 0.5% tween 80. SGF was prepared by diluting 16.4 mL of 10% HCl solution to 1000 mL with pure water. To prepare SIF, 6.8 g of KH2PO4 was dissolved in 500 mL of water; then, the pH was adjusted to 6.8 with NaOH solution with a concentration of 0.1 mol/L. At specified time points, i.e., 5 min, 10 min, 15 min, 20 min, 25 min, 30 min, 40 min, 50 min, 60 min, 90 min, 120 min, and 180 min, 0.5 mL of solution was withdrawn with a syringe. The collected solution was filtered through a 0.45 µm nylon filter and then subjected to HPLC determination. The dissolution studies of each solid form were conducted in triplicate (n = 3). After dissolution experiments, the residual samples were filtered and dried under vacuum for PXRD analysis.
The equipment has a diode array detector. An Agilent Zorbax Eclipse Plus C18 column was used in the experiments; it has a diameter of 4.6 mm, a length of 150 mm, and a filling aperture of 5 µm. The mobile phase contained 52% glacial acetic acid (4%) aqueous solution and 48% acetonitrile. The column temperature was set as 35 °C, and the UV-vis wavelength was set to 430 nm. A 10 µL sample was injected each time and the flow rate of the mobile phase was aet as 1 mL/min.

[5] = Dynamic vapor sorption (DVS) hygroscopicity; type: physicochemical; details: 25 °C
Method: The DVS profiles of different solid forms were tested on a SMS Intrinsic instrument, UK. To make sure each sample particle size was uniform, all samples were screened at 100 mesh (ΦA = 0.148 mm). Samples of 10–20 mg were used in the experiments. The DVS data were collected in an RH range of 0–95%. If the sample mass changes by less than 0.02% in 60 min, the next RH is conducted in a 5% step.

[6] = design: method as in U.S. Expert Review Board; details: adults; ref U.S. Expert Review Board; cited from earlier work

| wettability (powder sinking) ([1]; SGF containing 0.1% SDS, after 10 min) | wettability (powder sinking) ([1]; SGF without surfactant) | Cmax [2] | Tmax [2] | AUC(0-t) ([2]; 0 to 8 h, read-out: AUC0–8) | time to reach maximum concentration in dissolution ([4]; powder dissolution, 37 °C) | solubility at 180 min ([4]; simulated gastric fluid (SGF) with 0.5% tween 80, aqueous with cosolvent or surfactant or cyclodextrin, SGF containing 0.5% tween 80, 37 °C) | solubility at 180 min ([4]; simulated intestinal fluid (SIF) with 0.5% tween 80, aqueous with cosolvent or surfactant or cyclodextrin, SIF pH 6.8 containing 0.5% tween 80, 37 °C) | mass change ([5]; during 0%-95% RH) | Structure (SMILES) | oral bioavailability [3] | dose rated as safe as nutritional supplement [6] | water uptake ([5]; at 40% RH) | water uptake / water content ([5]; at 95% RH) | water that cannot be removed ([5]; when RH decreases to 0%) |
| --- | --- | --- | --- | --- | --- | --- | --- | --- | --- | --- | --- | --- | --- | --- |
| only a small quantity of CUR had sunk | could not sink into the fluid | 67.9 ng/mL | 1.5 h | 110 ng·h/mL | continues to increase over 180 min | 48.2 µg/mL (≈ 131 µM) | 24.5 µg/mL (≈ 66.5 µM) | nearly no mass change | COc1cc(/C=C/C(=O)CC(=O)/C=C/c2ccc(O)c(OC)c2)ccc1O [CUR, Curcumin] | about 1% | – | – | – | – |
| – | – | – | – | – | – | – | – | – | C[N+](C)(C)C[C@H](O)CC(=O)[O-] [L-CN, L-carnitine] | – | 20 mg/kg/day | 39.9% | 174.2% | 23.6% |
